Here are results for 6 compounds from patent US12070443B2, “Methods of treating and preventing breast cancer with S-equol” (The Board of Regents of the University of Texas System, priority 2018, dated 2024).

Entries after “also recorded” stand apart in the source; their conditions may differ. Like-named read-outs stand apart in the source and are kept apart here.

For assay [1], the system named is AT3 mammary tumor cell line. Kind of assay: AT3 mammary tumor challenge in mice, S-equol and/or anti-PD-1. The format is in vivo. Conditions: AT3 tumors. On the procedure: The following three murine mammary tumor lines were tested to determine the effects of a PD-1 inhibitor, S-equol and a combination of the two therapies on tumor growth: (1) E0771 (B6 background), (2) AT-3 (B6 background), and (3) 4T1 (BalbC background). This experimental design includes four arms (using AT-3 as an example): (1) controls, (2) αPD-1, (3) S-equol, and (4) αPD-1+S-equol (FIG. 3) by injecting into mice 2×10^5 cells subcutaneously into the 4th mammary gland fat pad.

The next assay addresses T1, ERβ pY36 (Homo sapiens, UniProt Q92731).
T1 construct: MDA-MB-231, a human TNBC breast cancer cell line; endogenous in cells; host or cells: MDA-MB-231 (human TNBC line; also as xenograft tumours in athymic nude mice)
Kind of assay: pY36-specific phosphorylation signal in MDA-MB-231 cells. Particulars: MDA-MB-231 cells (FIG. 18A). The format is cell-based.

The subject of assay [2] is MDA-MB-231 cell-derived xenograft tumor. Kind of assay: MDA-MB-231 xenograft in athymic nude mice. The class given is in vivo. Here is the method: Further work in a preclinical animal model supports the notion of using S-equol to treat TNBC breast cancer. In immunocompromised mouse xenograft experiments, which used MDA-MB-231, a human TNBC breast cancer cell line, growth of tumors was suppressed by 60% with S-equol treatment compared to control. 5×10^6 MDA-MB-231 cells were injected orthotopically into mammary gland fat pads of 6 week-old female athymic nude mice (Harlan). When the tumor masses reached 50 to 80 mm^3 (about one week after the inoculation), the mice were given daily subcutaneous injections of S-equol (20 or 60 mg/kg per day) or PBS as a vehicle control. Tumor development was followed by caliper measurements along two orthogonal axes: length (L) and width (W) and volume (V) was estimated by the formula V=[L×(W^2)]/2. Xenograft tumors harvested from mice were fixed in 10% neutral-buffered formalin, dehydrated, embedded in paraffin, and sectioned at 3 μm thickness. Representative tumor sections from vehicle control and S-equol-treated mice were tested for Ki-67 expression to assess cell proliferation, and for ERβ pY36. Statistical significance in the experiments was assessed by two-tailed Student's t test. In all assays, p<0.05 was considered statistically significant. See, Yuan et al. 2016 listed below, which is incorporated by reference herein for all purposes.

In assay [3] the test system is TNBC. Kind of assay: Pilot biomarker clinical study of Ki67 in TNBC subjects. The class given is in vivo, human. Here is the method:
A pilot biomarker clinical study was performed in 20 subjects with documented TNBC to determine the effect of the ERβ agonist S-equol on Ki67 an indicator of tumor cell proliferation. Tumor cell proliferation was measured by immunohistological staining for Ki-67. See, FIG. 13 for the outline of the protocol. Ki-67 is encoded by the gene MKI67 gene and is required to maintain individual mitotic chromosomes dispersed in the cytoplasm following nuclear envelope disassembly. Measuring the fraction of Ki-67-positive cells in a tumor is known to be a reliable parameter for assessing cancer patient prognosis. Subjects with TNBC are known to have very high levels of Ki67.
Patients enrolled in the study received a history, physical, laboratory assessment, radiological imaging, and diagnostic biopsies. Immunohistochemistry (IHC) of Ki67 (proliferation marker), total ERβ, and pY36-ERβ (phosphorylated ERβ), B7H1 (also known as PDL-1) and BRCA1 (breast cancer 1, early onset) were conducted using core needle biopsy tissue samples prior to treatment. Patients were given oral S-equol 50 mg, twice daily for approximately two weeks (10-21 days) prior to the scheduled oncologic surgeries or start of primary systemic therapy. Tumor samples were obtained from the surgery or the two-week repeat core needle biopsy. Post-treatment IHC evaluation of Ki67, total ERβ, phosphorylated ERβ (pY36) and BRCA1 were obtained. Ki67 reduction is a validated surrogate marker of both short and long term hormonal therapy efficacy in trials of human breast cancer and was compared pre- and post-treatment with S-equol. […] A c-DNA microarray platform was also used to discover downstream transcriptional targets of ERβ resulting from activation by S-equol.
Women eligible for the study had newly diagnosed, previously untreated, triple negative breast cancer, with an intact primary breast tumor of any size. All stages of the disease were eligible. They took S-equol during the time they underwent standard preoperative evaluation or pre-therapeutic work-up for advanced disease, such as staging procedures or central line placement. If primary surgery was performed, tissue leftover after standard diagnostic evaluation was used for the two-week biomarker assessment. […] See, FIG. 9.
A standard procedure for acquiring core biopsy with a Bard 14-gauge needle was utilized for determining TNBC prior to enrollment. Whenever possible, the tumor tissues used for IHC analyses were acquired at the same time as the diagnostic core biopsy. The tissue samples were sent for staining of total and pY36 ERβ and Ki67, and analyzed. Testing for ERα, PR, and HER-2 was performed using validated methods. TNBC tumors were defined as less than 5% nuclear staining of carcinoma cells for ERα and PR and either 0, 1, or 2+ staining for HER-2 by IHC. Whole-Genome DASL HT platform from Illumina, which is designed for gene expression profiling with extremely low input of RNA (50 pg), was used to interrogate paired FFPE tissue obtained before and after exposure to S-equol.
The primary analysis estimated the geometric mean change of the Ki67 expression from baseline to two weeks. This was performed using a one-sample t-test of the pre/post differences in the log-transformed data, and summarized by the 95% confidence interval. […]

For another assay, the system named is Ki67 expression. Conditions: after two weeks, IMPACT trial; cited from earlier work.
Assay [4] has as its system TNBC. Particulars: cited from earlier work.
Setting [5] is: of 17 evaluable patients, S-equol 50 mg twice daily.

T1 sequence (Q92731 whole entry): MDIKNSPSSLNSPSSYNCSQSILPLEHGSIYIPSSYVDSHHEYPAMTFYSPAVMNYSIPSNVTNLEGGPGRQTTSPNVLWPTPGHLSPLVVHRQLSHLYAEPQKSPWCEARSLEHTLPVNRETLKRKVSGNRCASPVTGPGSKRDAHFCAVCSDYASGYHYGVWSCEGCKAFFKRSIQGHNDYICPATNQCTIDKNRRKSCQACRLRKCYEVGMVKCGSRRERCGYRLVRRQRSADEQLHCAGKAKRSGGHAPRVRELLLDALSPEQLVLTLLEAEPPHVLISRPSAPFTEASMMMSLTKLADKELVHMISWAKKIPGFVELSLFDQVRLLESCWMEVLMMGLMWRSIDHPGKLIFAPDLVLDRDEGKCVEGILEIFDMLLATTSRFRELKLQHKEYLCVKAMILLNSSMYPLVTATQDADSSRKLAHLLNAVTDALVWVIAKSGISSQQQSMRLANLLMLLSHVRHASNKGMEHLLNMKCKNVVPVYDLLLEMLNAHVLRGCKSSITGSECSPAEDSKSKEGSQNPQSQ

Turning to `Oc1ccc([C@H]2COc3cc(O)ccc3C2)cc1` [S-equol], the tumor size result in assay [1] (excised tumors (FIG. 4C)) is “reduce tumor size compared to control”. Moreover, the tumor weight entry in assay [1] (anti-PD-1 200 μg every 3 days, S-equol 50 mg/kg per day (FIG. 4B)) is reported as “reduce tumor weight compared to control”. For the same compound, in assay [1] (anti-PD-1 200 μg every 3 days, S-equol 50 mg/kg per day, over 35 days post-challenge (FIG. 4A)), the tumor volume result is “reduce tumor volume compared to control”. The pY36-specific phosphorylation signal result on ERβ pY36 is listed as “enhanced”. For the same compound, in assay [2] (daily subcutaneous S-equol 20 or 60 mg/kg per day), the “growth of tumors suppressed compared to control” value amounted to 60%. The xenograft tumor growth entry in assay [2] (in words (FIGS. 8, 15, 18B)) is reported as “inhibits tumor growth in vivo; also recorded: reduces the growth of TNBC cells; also recorded: inhibited”. In addition, in the assay on TNBC [3] (setting [5]), the “patients with 0-20% reduction in Ki-67” value was 7 patients, the “patients with greater than 20% reduction in Ki-67” value is “one”, the “patients with greater than 30% reduction in Ki-67” value was 4 patients and the “patients with no reduction in Ki-67” value stood at 5 patients. The “Ki67 change pre- vs post-treatment” value in the assay on TNBC [3] (oral S-equol 50 mg twice daily, 10-21 days, TNBC patients) is “measurable decrease in Ki67; also recorded: measurable decline in Ki67”.
Regarding `CC(C)(C#N)c1cc(Cn2cncn2)cc(C(C)(C)C#N)c1` [anastrazole], the “change in the geometric mean of Ki67 expression” value in the assay with Ki67 expression is −76%.
`CC/C(=C(\c1ccccc1)c1ccc(OCCN(C)C)cc1)c1ccccc1` [tamoxifen]: the “change in the geometric mean of Ki67 expression” value with Ki67 expression is on record as −59.5%.
For the compound atezolizumab: an αPD-L1 antibody, in the assay with TNBC [4] (21 evaluable PD-L1 expressing TNBC tumors), the response rate is on record as 19%.
In the case of avelumab: another αPD-L1 antibody, in the assay with TNBC [4] (168 TNBC tumors unselected for PD-L1 expression), the response rate is given as 8.6%.
Regarding pembrolizumab: an αPD-1 antibody, the response rate in the assay on TNBC [4] (Phase 1, 27 women, pretreated chemotherapy resistant metastatic TNBC expressing PD-L1) was 18.4%.
